Measurements taken from US20160052898A1, “NOVEL COMPOUNDS” (BAYER PHARMA AKTIENGESELLSCHAFT, priority 2013, published 2016).
Counter-ions that a name gives are not always drawn.

What was measured:
[1] = test system: HCT116 FOP control reporter cell line; assay: HCT116 FOP control vector reporter assay (non-functional TCF elements); assay type: cell-based; settings: Homo sapiens, HCT-116, 36 h, HCT116 FOP control reporter cells, luciferase expression, 36 hours incubation, 50 μM to 15 nM; read-out: HCT116 FOPFlash IC50
Outline: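 Stable HCT116 line carrying the non-functional FOP luciferase construct, 10000 cells/well plated 24 hrs before. Compounds 50 μM to 15 nM (3.16-fold steps) in CAFTY buffer pH 7.4 with 2 mM Ca2+, 36 hours at 37° C; luciferase luminescence read.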

[2] = test system: constitutive active colorectal cancer cell (CRC) Wnt pathway; assay: HCT116 Super TopFlash cellular reporter assay (constitutive active Wnt pathway); assay type: cell-based; settings: Homo sapiens, HCT-116, 36 h, HCT116 TOP reporter cells, luciferase expression, 36 hours incubation, 50 μM to 15 nM
Outline: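 Luciferase luminescence served as the Wnt read-out after 36 h of compound treatment at 37 °C. Compound came from a pre-dilution series (50 μM down to 15 nM, 3.16-fold steps) in CAFTY buffer. Cells were stable HCT116 TOP reporter cells, with matched FOP-vector control cells tested in parallel, seeded a day earlier.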

| SMILES | IC50 [1] | IC50 [2] |
| --- | --- | --- |
| COc1ccc(C(=O)Nc2ccc(-c3ccccc3)cc2)cc1NC(=O)C1(N2CCN(C3CC3)CC2)CC1 [Example 156, N-(biphenyl-4-yl)-3-({[1-(4-cyclopropylpiperazin-1-yl)cyclopropyl)carbonyl}amino)-4-methoxybenzamide] | ≥ 50000 nM | 52.7 nM |
| COCc1ccc(C(=O)Nc2ccc(-c3ccccc3)cc2)cc1NC(=O)C(C)N1CCOCC1 (stereo not drawn) [Example 157, N-(biphenyl-4-yl)-4-(methoxymethyl)-3-{[2-(morpholin-4-yl)propanoyl)amino} benzamide] | 43500 nM | 60.5 nM |
| COCc1ccc(C(=O)Nc2ccc(-c3ccccc3)cc2)cc1NC(=O)C1(N(C)C)CC1 [Example 158] | ≥ 50000 nM | 63 nM |
| Cc1ccc(C(=O)Nc2ccc(-c3ccccc3)cc2)cc1NC(=O)C1(N2CCOCC2)CC1 [Example 159, N-(biphenyl-4-yl)-4-methyl-3-({[1-(morpholin-4-yl)cyclopropyl)carbonyl}amino)benzamide] | ≥ 50000 nM | 70.5 nM |
| COCCCOCc1ccc(C(=O)Nc2ccc(-c3ccccc3)cc2)cc1NC(=O)C(C)N1CCOCC1 (stereo not drawn) [Example 160, N-(biphenyl-4-yl)-4-[(3-methoxypropoxy)methyl]-3-([2-(morpholin-4-yl)propanoyl]amino} benzamide] | 30000 nM | 79.5 nM |
| CC(C(=O)Nc1cc(NC(=O)c2ccc(-c3ccccc3)cc2)ccc1C(F)(F)F)N1CCOCC1 (stereo not drawn) [Example 161, N-[3-{[2-(morpholin-4-yl)propanoyl]amino}-4-(trifluoromethyl)phenyl] biphenyl-4-carboxamide] | ≥ 50000 nM | 98 nM |
| COc1ccc(NC(=O)c2ccc(-c3ccccc3)cc2)cc1NC(=O)C1(N2CCN(C)CC2)CC1 [Example 163, N-[4-methoxy-3-({[1-(4-methylpiperazin-1-yl)cyclopropyl]carbonyl}amino)phenyl]biphenyl-4-carboxamide hydrochloride (1:1)] | 12600 nM | 127 nM |
| COCCOCc1ccc(C(=O)Nc2ccc(-c3ccccc3)cc2)cc1NC(=O)C(C)N1CCOCC1 (stereo not drawn) [Example 164, N-(biphenyl-4-yl)-4-[(2-methoxyethoxy)methyl]-3-{[2-(morpholin-4-yl)propanoyl]amino} benzamide] | ≥ 50000 nM | 134 nM |
| COCc1ccc(C(=O)Nc2ccc(-c3ccccc3)cc2)cc1NC(=O)CN1CCOCC1 [Example 165, N-(biphenyl-4-yl)-4-(methoxymethyl)-3-[(morpholin-4-ylacetyl)amino]benzamide] | ≥ 50000 nM | 135 nM |
| COCc1ccc(C(=O)Nc2ccc(-c3ccccc3)cc2)cc1NC(=O)C(C)N1CC2CCC(C1)O2 (stereo not drawn) [Example 170, N-(biphenyl-4-yl)-4-(methoxymethyl)-3-{(2-(8-oxa-3-azabicyclo[3.2.1]oct-3-yl)propanoyl)amino} benzamide] | 7400 nM | 178 nM |
| O=C(Nc1ccc(F)c(NC(=O)C2(N3CCOCC3)CC2)c1)c1ccc(-c2ccccc2)cc1 [Example 171, N-[4-fluoro-3-({[1-(morpholin-4-yl)cyclopropyl]carbonyl}amino)phenyl]biphenyl-4-carboxamide] | ≥ 50000 nM | 200 nM |
| COC1CCN(CC(=O)Nc2cc(C(=O)Nc3ccc(-c4ccccc4)cc3)ccc2OC2CC2)C1 (stereo not drawn) [Example 174, N-(biphenyl-4-yl)-4-(cyclopropyloxy)-3-{[(3-methoxypyrrolidin-1-yl)acetyl)amino}benzamide] | ≥ 50000 nM | 215 nM |
| COCc1ccc(C(=O)Nc2ccc(-c3ccccc3)cc2)cc1NC(=O)CN1C[C@@H]2C[C@H]1CO2 [Example 175, N-(biphenyl-4-yl)-4-(methoxymethyl)-3-{[(1S,4S)-2-oxa-5-azabicyclo[2.2.1]hept-5-ylacetyl)amino}benzamide] | 7300 nM | 218 nM |
| COCCCOCc1ccc(C(=O)Nc2ccc(-c3ccccc3)cc2)cc1NC(=O)CN1CC2CCC(C1)O2 [Example 176, N-(biphenyl-4-yl)-4-[(3-methoxypropoxy)methyl]-3-[(8-oxa-3-azabicyclo[3.2.1]oct-3-ylacetyl)amino]benzamide] | 3420 nM | 260 nM |
| CC(C(=O)Nc1cc(NC(=O)c2ccc(-c3ccccc3)cc2)ccc1C(F)(F)F)N1CC2CCC(C1)O2 (stereo not drawn) [Example 178, N-[3-{[2-(8-oxa-3-azabicyclo[3.2.1]oct-3-yl)propanoyl]amino}-4-(trifluoromethyl)phenyl) biphenyl-4-carboxamide] | 47500 nM | 285 nM |
| O=C(CN1C[C@H]2C[C@@H]1CO2)Nc1cc(C(=O)Nc2ccc(-c3ccccc3)cc2)ccc1OC1CC1 [Example 181, N-(biphenyl-4-yl)-4-(cyclopropyloxy)-3-{[(1R,4R)-2-oxa-5-azabicyclo[2.2.1]hept-5-ylacetyl]amino}benzamide] | ≥ 50000 nM | 302 nM |
| O=C(CN1CCOCC1)Nc1cc(NC(=O)c2ccc(-c3ccccc3)cc2)ccc1C(F)(F)F [Example 183, N-{3-[(morpholin-4-ylacetyl)amino]-4-(trifluoromethyl)phenyl} biphenyl-4-carboxamide] | ≥ 50000 nM | 344 nM |
| O=C(CN1CCOCC1)Nc1cc(C(=O)Nc2ccc(-c3ccccc3)cc2)ccc1OC(F)F [Example 184, N-(biphenyl-4-yl)-4-(difluoromethoxy)-3-[(morpholin-4-ylacetyl)amino]benzamide] | ≥ 50000 nM | 346 nM |
| COc1ccc(NC(=O)c2ccc(-c3ccccc3)cc2)cc1NC(=O)C1(N2CCN(C3CC3)CC2)CC1 [Example 185, N-[3-({[l-(4-cyclopropylpiperazin-1-yl)cyclopropyl]carbonyl}amino}-4-melhoxyphenyl)biphenyl-4-carboxamide] | ≥ 50000 nM | 374 nM |
| COC1CN(CC(=O)Nc2cc(C(=O)Nc3ccc(-c4ccccc4)cc3)ccc2OC2CC2)C1 [Example 186, N-(biphenyl-4-yl)-4-(cyclopropyloxy)-3-{[(3-methoxyazetidin-1-yl)acetyl]amino}benzamide] | ≥ 50000 nM | 385 nM |
| COCc1ccc(C(=O)Nc2ccc(-c3ccccc3)cc2)cc1NC(=O)Cn1cccn1 [Example 187, N-(biphenyl-4-yl)-4-(methoxymethyl)-3-[(1H-pyrazol-1-ylacetyl)amino]benzamide] | ≥ 50000 nM | 423 nM |
| CN(C)C1(C(=O)Nc2cc(NC(=O)c3ccc(-c4ccccc4)cc3)ccc2OC(F)(F)F)CC1 [Example 188, N-[3-({[1-(dimethylamino)cyclopropyl]carbonyl}amino)-4-(trifluoromethoxy)phenyl] biphenyl-4-carboxamide] | 33000 nM | 456 nM |
| COc1ccc(NC(=O)c2ccc(-c3ccccc3)cc2)cc1NC(=O)C1(N(C)C)CC1 [Example 189, N-[3-({[1-(dimethylamino)cyclopropyl]carbonyl}amino)-4-methoxyphenyl]biphenyl-4-carboxamide] | ≥ 50000 nM | 479 nM |
| O=C(CN1C[C@H]2C[C@@H]1CO2)Nc1cc(C(=O)Nc2ccc(-c3ccccc3)cc2)ccc1C(F)(F)F [Example 190, N-(biphenyl-4-yl)-3-{[(1R,4R)-2-oxa-5-azabicyclo[2.2.1]hept-5-ylacetyl]amino}-4-(trifluoromethyl)benzamide] | ≥ 50000 nM | 568 nM |
| O=C(CN1CCOCC1)Nc1cc(C(=O)Nc2ccc(-c3ccccc3)cc2)ccc1C(=O)NCCN1CCCC1 [Example 191, N4-(biphenyl-4-yl)-2-[(morpholin-4-ylacetyl)amino]-N1-[2-(pyrrolidin-1-yl)ethyl]terephthalamide] | 12000 nM | 715 nM |
| O=C(CN1C[C@@H]2C[C@H]1CO2)Nc1cc(C(=O)Nc2ccc(-c3ccccc3)cc2)ccc1OC1CC1 [Example 192, N-(biphenyl-4-yl)-4-(cyclopropyloxy)-3-{[(1S,4S)-2-oxa-S-azabicyclo[2.2.1]hept-5-ylacetyl]amino}benzamide] | ≥ 50000 nM | 785 nM |
| COCCOCc1ccc(C(=O)Nc2ccc(-c3ccccc3)cc2)cc1NC(=O)CN1CC2CCC(C1)O2 [Example 193, N-(biphenyl-4-yl)-4-[(2-methoxyethoxy)methyl]-3-[(8-oxa-3-azabicyclo[3.2.1]oct-3-ylacetyl)amino]benzamide] | 17000 nM | 810 nM |
| Cc1noc(-c2ccc(C(=O)Nc3ccc(-c4ccccc4)cc3)cc2NC(=O)CN2CCOCC2)n1 [Example 194, N-(biphenyl-4-yl)-4-(3-methyl-1,2,4-oxadiazol-5-yl)-3-[(morpholin-4-ylacetyl)amino]benzamide] | ≥ 50000 nM | 864 nM |
| COc1ccc(NC(=O)c2ccc(-c3ccc(O)cc3)cc2)cc1NC(=O)CN1CCOCC1 [Example 195, 4′-hydroxy-N-{4-methoxy-3-[(morpholin-4-ylacetyl)amino)phenyl} biphenyl-4-carboxamide] | 39000 nM | 975 nM |
| COc1ccc(NC(=O)c2ccc(-c3cc(F)cc(F)c3)cc2F)cc1NC(=O)CN1CCOCC1 [Example 196, 3,3′,5′-trifluoro-N-{4-methoxy-3-[(morpholin-4-ylacetyl)amino]phenyl} biphenyl-4-carboxamide] | 13000 nM | 1170 nM |
